Legend:
antibody 38C2 = experiment: Kinetic analysis of antibody 38C2-catalyzed prodrug activation (RP-HPLC); format: biochemical, mouse
Method: All antibody reactions were carried out in PBS (pH 7.4) at 37° C. in microfuge tubes. […] Kinetic data were derived from Lineweaver-Burk plots. […] Topoisomerase I and II inhibitor doxorubicin was chosen as a model compound for this prodrug activation concept because its structure activity relationship is well characterized and it has been used previously in ADEPT systems (Niculescu-Duvaz, I. & Springer, C. J. (1997) Adv. Drug Delivery Rev. 26, 151-172). Doxorubicin is a drug approved for cancer therapy that suffers from misdirected toxicity. […] The tertiary aldol was chosen as the first reaction since no known natural enzyme catalyzes this particular type of retro-aldol reaction. […] Typically 38C2 is highly enantioselective, however, under the conditions studied, the reaction proceeded to completion indicative of loss of enantioselectivity and complete activation of the prodrug. According to a pharmacokinetic analysis of ADEPT systems, low kcat values combined with high Km values are expected to increase the tumor to blood ratio of the free drug, leading to a reduction in peripheral toxicity (Yuan, J., Baxter, L. T. & Jain, R. K. (1991). Cancer Res. 51, 3119-3130). […] To this end, both the masking linker and catalytic antibody are being optimized.

[1] = test system: human prostate cancer cell line LNCap; experiment: Cell growth inhibition assay (lactate dehydrogenase colour reaction), LNCap; format: cell-based
Excerpt: (§1) Human colon carcinoma cell lines HT29 and LIM1215 were kindly provided by Dr. Lloyd J. Old from The Ludwig Institute for Cancer Research in New York. Human prostate cancer cell line LNCap was purchased from American Type Culture Collection (Manassas, Va.). All cell lines were maintained in RPMI 1640 medium (Hyclone, Logan, Utah) supplemented with 10% fetal bovine serum (Life Technologies, Gaithersburg, Md.) and antibiotic-antimycotic reagents (Life Technologies) containing penicillin, streptomycin, and amphotericin B. The cell lines were cultivated in culture flasks at 37° C. in a humidifying incubator in an atmosphere of 5% CO2.
(§2) Stock solutions of 5 mM doxorubicin and prodoxorubicin in DMF, respectively, were stored at 4° C. For cell growth inhibition assays, 250-μM dilutions of doxorubicin and prodoxorubicin in PBS (pH 7.4) were freshly prepared from the 5 mM stock solutions and further diluted in cell culture medium to yield 10 nM to 25 μM solutions. Methyl vinyl ketone was purchased from Aldrich (Milwaukee, Wis.). Stock solutions of 1 mM camptothecin and procamptothecin in DMF, respectively, were stored at 4° C. […] Prior to the quantitative cell growth inhibition assay, the cell density was qualitatively analyzed by microscopy. This visual evaluation always matched the result of the quantitative analysis. […] For quantification, 50 μl aliquots were transferred to another 96-well plate and the color was read at 490 nm in an ELISA plate reader. The absorbance data were converted to percent cell density with the untreated controls being 100% and the background of the color reaction being 0%.
(§3) The antiproliferative effects of drug and prodrug were monitored by quantifying the cell growth in the presence of a range of concentrations of doxorubicin and prodoxorubicin, respectively. Three different human cancer cell lines were evaluated, human colon carcinoma cell lines HT29 and LIM1215 and human prostate cancer cell line LNCap. […]

[2] = test system: LIM1215 human colon carcinoma cells; experiment: Cell growth inhibition assay (lactate dehydrogenase colour reaction), LIM1215; format: cell-based; details: for IC50: Homo sapiens, LIM1215
Method: Stock solutions of 5 mM doxorubicin and prodoxorubicin in DMF, respectively, were stored at 4° C. For cell growth inhibition assays, 250-μM dilutions of doxorubicin and prodoxorubicin in PBS (pH 7.4) were freshly prepared from the 5 mM stock solutions and further diluted in cell culture medium to yield 10 nM to 25 μM solutions. […] Stock solutions of 1 mM camptothecin and procamptothecin in DMF, respectively, were stored at 4° C. For cell growth inhibition assays, 100-μM dilutions of camptothecin and procamptothecin in PBS (pH 7.4) were freshly prepared from the 1 mM stock solutions and further diluted in cell culture medium to yield 10 nM to 1 μM solutions. Cells grown in culture flasks were trypsinized, washed with PBS, resuspended in cell culture medium, and reduced to a single cell suspension by passing through a 18 G needle. After counting, the cells were plated at a density of 5×10^3 (HT29) or 1×10^4 (LIM1215, LNCap) cells/well in 96-well tissue culture plates and maintained in culture as described above. Drugs were diluted to a final concentration range of 10 nM to 25 μM in 100 μl 10% fetal bovine serum in RPMI 1640 and added to the cells 24 hours after plating. […] After drug addition, the cells were maintained at 37° C. in 5% CO2for 3 to 5 days (72 to 120 hours). Prior to the quantitative cell growth inhibition assay, the cell density was qualitatively analyzed by microscopy. […] The cells were then washed with 150 μl PBS (pH 7.5) and incubated with 100 μl of 9% (v/v) Triton-X 100 (Sigma, St. Louis, Mo.) for 45 minutes at 37° C. The supernatant was then transferred to a 96-well V-shaped plate and centrifuged to remove cell debris. […] For quantification, 50 μl aliquots were transferred to another 96-well plate and the color was read at 490 nm in an ELISA plate reader. The absorbance data were converted to percent cell density with the untreated controls being 100% and the background of the color reaction being 0%.

[3] = test system: HT29 human colon carcinoma cells; experiment: Cell growth inhibition assay (lactate dehydrogenase colour reaction), HT29; format: cell-based
Excerpt: as §1, §2, §3

[4] = 72 h after drug addition, 50% decrease in cell density vs untreated control
[5] = HT-29, 72 h after drug addition, 50% decrease in cell density vs untreated control

Compound	IC50 [1, 4] [µM]	IC50 [2, 4] [µM]	IC50 [3, 5] [µM]	other results
CC(=O)CC(C)=O [2,4-pentanedione]				inhibition of 38C2 catalysis of prodoxorubicin cleavage (antibody 38C2): completely inhibited
CC[C@@]1(O)C(=O)OCc2c1cc1n(c2=O)Cc2cc3ccccc3nc2-1 [camptothecin]	0.01 to 0.025	0.1 to 0.25	0.1 to 0.25	
COc1cccc2c1C(=O)c1c(O)c3c(c(O)c1C2=O)C[C@@](O)(C(=O)CO)C[C@@H]3O[C@H]1C[C@H](N)[C@H](O)[C@H](C)O1 [doxorubicin]	0.4	0.4	3	IC50 ([1]; 120 h after drug addition): 0.2 µM; IC50 ([2]; 120 h after drug addition): 0.4 µM; IC50 ([3]; HT-29, 120 h after drug addition): 2.5 µM
C=CC(C)=O [methyl vinyl ketone]				cell growth inhibition when applied alone ([2]; LIM1215 cells, 120 h, without combination partner): no inhibition of cell growth
